Calls of active or inactive are those of the source. The rule behind the calls is not given here.

This assay concerns S. cerevisiae expressing PfHSP40, growth rescue, plate reader. The assay can be described thus: S cerevisiae expressing PfHSP40, growth rescue, cherry pick dose confirmatory, plate reader (AID 540271).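 Note: yeast growth read after three days of incubation at 30 °C.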
`COc1cccc(/C=N/Nc2ncc(C(F)(F)F)cc2Cl)c1O`: the AC50 is 1.49 µM.

As to `CC(C)C(=O)NC(c1cccc([N+](=O)[O-])c1)c1ccc2cccnc2c1O` (configuration not stated), the half-maximal activity concentration (AC50) was 1.27 µM.

Consider `O=C(Nc1ccc(Cl)cc1C(=O)Nc1ccc(Br)cn1)c1ccco1`, for which the half-maximal activity concentration (AC50) was 3.64 µM.

For `O=C(OCC(=O)C12CC3CC(CC(C3)C1)C2)c1ccc(O)cc1`, the AC50 is 1.69 µM.

For `O=C(N/N=C/c1ccc[nH]1)c1sc2ccccc2c1Cl`, the concentration at half-maximal activity (AC50) is 6.23 µM.

In the case of `c1ccc(Nc2cccc(Nc3ccccc3)c2)cc1`, the AC50 was 5.81 µM.

Regarding `O=c1c(Cl)c(Cl)cnn1Cc1nnc(-c2ccc(Cl)cc2)o1`, the AC50 was 7.45 µM.

Turning to `Nc1cc2c3ccccc3ccc2c2ccccc12`, the concentration at half-maximal activity (AC50) was 2.13 µM.

Regarding `CCCCCCSc1ccc(-c2nc3ccccn3c2NCCCC)cc1`, the concentration at half-maximal activity (AC50) is 6.05 µM.

Regarding `COc1ccc2c(c1)OC[C@H]1[C@H]2N2C(=O)c3cc(Cl)ccc3NC(=O)[C@@]2(C)[C@H]1c1ccccc1`, the AC50 is 4.63 µM.

In the case of `O=S1OC(c2ccccc2)c2cc(Cl)ccc21` (configuration not stated), the AC50 is 10.8 µM.

With `Cc1cc(F)ccc1S(=O)(=O)N(C(=O)c1ccncc1)c1ccc(OC(=O)c2ccncc2)cc1`, the concentration at half-maximal activity (AC50) was 6.3 µM.

Take `c1ccc(-c2ccc(SCc3cccnc3)nn2)nc1`: the AC50 is > 12 µM (inactive).

Take `Cc1ccc(COc2ccc(Br)cc2/C=N/O)cc1`: the concentration at half-maximal activity (AC50) is 7.92 µM.

For the molecule `O=[N+]([O-])c1ccc2c(OCc3nnc(-c4ccccc4Br)o3)ncnc2c1`, the half-maximal activity concentration (AC50) was 6.17 µM.

For `CC/C(=N/NC(=O)c1ccccc1O)c1c(C)[nH]n(-c2ccccc2)c1=O`, the AC50 was 0.705 µM.

As for `Cc1cc(/C=C2\SC(=S)NC2=O)c(C)n1-c1cccc(O)c1`, the concentration at half-maximal activity (AC50) is 9.83 µM.

For the molecule `O=Cc1ccc(O)c2ncccc12`, the concentration at half-maximal activity (AC50) is 0.366 µM.

As to `Cc1ccccc1CN(C)CCS(=O)(=O)c1cc(Cl)ccc1Cl`, the AC50 is > 12 µM (inactive).

As for `Cc1nc2ccc(NC(=O)Cc3ccc4c(c3)OCCO4)cc2s1`, the AC50 was 4.83 µM.

On to `CCc1oc2ccccc2c1C(=O)c1cc(Br)c(O)c(Br)c1`, for which the AC50 was 3.28 µM.

In the case of `COc1cc(OC)c(-c2c3cc(O)c(=O)cc-3oc3cc(O)c(O)cc23)cc1OC`, the AC50 is 1.67 µM.

With `Cc1ccc(O)c(-c2cc(-c3ccccc3C)[nH]n2)c1`, the AC50 is 5.42 µM.

`Oc1ccc(/C=N/Nc2ccc(C(F)(F)F)cn2)c(O)c1`: the AC50 is 2.14 µM.

`S=C(NCc1ccco1)Nc1ccc(Oc2ccc(Cl)cc2)cc1`: the AC50 is 7.02 µM.

For the molecule `O=c1c2ccccc2c(-c2ccc(O)cc2)nn1-c1cccc(C(F)(F)F)c1`, the concentration at half-maximal activity (AC50) was 3.92 µM.

On to `CCCC(C)Sc1nc2c([nH]1)c(=S)n(C)c(=O)n2C` (configuration not stated), for which the AC50 was 8.18 µM.

Turning to `O=C(CSc1ccc(-c2ccccn2)nn1)NC1CCCC1`, the AC50 was 11.1 µM.

`COc1ccc(N(C)S(=O)(=O)c2ccc(Cl)c(C(=O)NNC(=O)c3ccccc3O)c2)cc1`: the concentration at half-maximal activity (AC50) is 2.52 µM.

`Cc1cc(-c2ccccc2)n(-c2cc(N/N=C/c3ccccc3O)ncn2)n1`: the AC50 was 5.77 µM.

For `Cc1cc(Cl)ccc1C(=O)C1CCCN(C(=O)c2cncs2)C1` (configuration not stated), the half-maximal activity concentration (AC50) is 4.83 µM.

On to `COc1cnc(-c2ccccn2)nc1Sc1ccccc1`, for which the half-maximal activity concentration (AC50) was 6.99 µM.

Consider `Oc1c(C(Nc2cccc(C(F)(F)F)c2)c2ccncc2)ccc2cccnc12` (configuration not stated), for which the AC50 is 1.92 µM.

Regarding `CCc1ccc(C(C)NC(=S)NC2CCCCC2)cc1` (configuration not stated), the AC50 is 7.1 µM.

As to `COc1cnc(-c2ccccn2)nc1Sc1ccc(C)cc1`, the concentration at half-maximal activity (AC50) was 5.97 µM.

Take `CC(C)(C)n1nc(-c2ccc(F)cc2)c2c(N)ncnc21`: the concentration at half-maximal activity (AC50) was 1.47 µM.

Take `COc1cccc2c1C(=O)c1c(O)c3c(c(O)c1C2=O)CC(O)(C(C)=O)CC3OC1CC(N(C)C)C(O)C(C)O1` (configuration not stated): the AC50 is 1.41 µM.

As to `CCc1cc(C(N)=O)c(NC(=O)c2ccc(OC)cc2)s1`, the AC50 was 1.77 µM.

Consider `Nc1nc2sc3c(c2c(=O)s1)CCCC3`, for which the concentration at half-maximal activity (AC50) is 3.58 µM.

In the case of `Cc1ccc(-c2nc3ccc(Cl)cc3c(=O)n2O)cc1`, the AC50 was 2.08 µM.

Regarding `CCCCCCCCCCOC(=O)Cn1c(COc2ccc(OC)cc2)[n+](C)c2ccccc21`, the AC50 was 6.37 µM.

Take `O=C(c1ccccc1)c1coc2c1C(=O)c1ccccc1C2=O`: the AC50 is 11.7 µM.

Take `Cc1[nH]n(-c2cccc3ccccc23)c(=O)c1/C=N/NC(=O)c1cccc([N+](=O)[O-])c1`: the AC50 is 1.48 µM.

Take `Fc1ccc(CCNC(=S)Nc2ccc(F)c(Cl)c2)cc1`: the concentration at half-maximal activity (AC50) is 7.64 µM.

Consider `O=[N+]([O-])c1cc(Cl)cc(/C=N/NC(=S)Nc2ccc(S(=O)(=O)N3CCOCC3)cc2)c1O`, for which the half-maximal activity concentration (AC50) was 3.13 µM.

For the molecule `CC(C)N1CCN(c2ccc(OC[C@H]3CO[C@](Cn4cncn4)(c4ccc(Cl)cc4Cl)O3)cc2)CC1`, the half-maximal activity concentration (AC50) was 2 µM.

On to `Cc1cc(C(=O)N/N=C/c2cc(Br)cc([N+](=O)[O-])c2O)c2ccccc2n1`, for which the AC50 was 3.37 µM.

On to `O=C(Nc1ccc(C2=NCCN2)cc1)c1ccc(C(=O)Nc2ccc(C3=NCCN3)cc2)c(Cl)c1`, for which the AC50 is 4.17 µM.

`COc1cc(C(=O)ON=C2C3CC4CC(C3)CC2C4)cc(OC)c1OC`: the AC50 was 5.01 µM.

Consider `O=C(NC1=CC(=O)c2ccccc2C1=O)c1ccccc1`, for which the AC50 was 7.77 µM.

For `CCCCCCCn1c(=O)c(C(=O)OC)c(N)c2ccccc21`, the concentration at half-maximal activity (AC50) is 4.64 µM.

Turning to `Oc1ccc(N=Nc2ccc3c(c2)OCCO3)c2cccnc12`, the AC50 is 1.85 µM.

Regarding `COc1ccc(OC)c(-c2c3cc(O)c(=O)cc-3oc3cc(O)c(O)cc23)c1`, the concentration at half-maximal activity (AC50) is 3.79 µM.

For `O=C(CSc1nnc(-c2ccccc2O)n1Cc1ccccc1)NNC(=O)c1ccccc1O`, the AC50 is 3.94 µM.

Turning to `Cc1cc(NS(=O)(=O)c2ccc(C3CCCCC3)cc2)no1`, the AC50 is 5.38 µM.

Consider `COc1cccc(-n2nc(C#N)c(Cl)cc2=O)c1`, for which the AC50 is 5.59 µM.

On to `O=C(C1CCN(C2CC(=O)N(c3cccc(Cl)c3)C2=O)CC1)N1CCCC1` (configuration not stated), for which the concentration at half-maximal activity (AC50) was 6.02 µM.

Consider `O=C(Nc1cccc(-c2nc3ccccc3s2)c1)c1cccs1`, for which the AC50 was 5.98 µM.

Regarding `O=c1c2ccccc2nc(-c2cccc(Cl)c2)n1O`, the AC50 is 3.21 µM.

`O=C1c2cccc(Cl)c2C(=O)c2c1cccc2N1CCCC1`: the concentration at half-maximal activity (AC50) is 4.9 µM.

For the molecule `COc1ccc(C(=O)On2c(-c3ccc(Br)cc3)nc3ccccc3c2=O)cc1`, the AC50 was 4.13 µM.

`CCOC(=O)c1ccc(N2C(=O)CC(N(C)CCc3ccc(OC)c(OC)c3)C2=O)cc1` (configuration not stated): the AC50 was 5.96 µM.

As for `Cc1ccc(Cl)cc1NC1=C/C(=N\S(=O)(=O)c2cccs2)c2ccccc2C1=O`, the concentration at half-maximal activity (AC50) is 6.42 µM.

Take `COc1cc(/C=N/O)cc(Br)c1OCc1cccc(Cl)c1`: the half-maximal activity concentration (AC50) is 5.31 µM.

Turning to `O=C(C=Cc1cccc(O)c1)c1ccccc1O`, the concentration at half-maximal activity (AC50) was 2.1 µM.

For `O=S(=O)(Nc1ccccc1)c1ccc(Oc2ncc(C(F)(F)F)cc2Cl)cc1`, the AC50 is 6.09 µM.

As for `CC1=C(C)/C(=N\OS(=O)(=O)c2ccc(C)cc2)C=CC1=O`, the AC50 was 5 µM.

As for `COc1cccc(C(C)=C2SC(=S)NC2=O)c1`, the concentration at half-maximal activity (AC50) is 9.37 µM.

Regarding `Cc1ccc(C)c(S(=O)(=O)N2CCN(Cc3ccc(O)c4ncccc34)CC2)c1`, the AC50 was 5.23 µM.

Consider `CC(C)=CCc1c(O)cc(O)c2c1OC(c1ccc(O)cc1)CC2=O` (configuration not stated), for which the AC50 is 5.76 µM.

Consider `CCCCOC(=O)/C=C/c1ccc(OC(=O)OC)c(OC(=O)OC)c1`, for which the AC50 was 5.54 µM.

In the case of `COc1cccc(/C=N/Nc2ncnc(Cl)c2N)c1O`, the AC50 is 4.52 µM.

Source of the values: PubChem BioAssay AID540271 (Broad Institute, 2011).
